What was measured:
[1] = system: IEC-6/TRPV1+ cells; experiment: LDH release assay (cell membrane integrity); details: for LDH release: IEC-6/TRPV1+; for LDH release compared with the control: NOVO 2.5, 5, 10 μM, CAP 25 μM, RR 10 μM, SB-705498 0.1 μM, 12 and 24 h
Description: (§4) The transfected cells were plated in 12-well plates. […] The cells were centrifuged at 1000 g for 5 min. Next, 50 μL of supernatants were aspirated and the rest of supernatants were discarded. The cells were washed twice with deionized water and then lysed by ultrasonic wave cracker. And then cell lysate and supernatants were analyzed by using LDH Release Assay Kit, according to the manufacturer’s instructions.

[2] = system: rat intestine (jejunum, ileum, colon); experiment: Ussing chamber intestinal permeability of NOVO; format: in vitro ADME; details: NOVO in combination with 10 μM RR; Figure 1
Description: The intestinal permeability of CAP in vitro was performed using Ussing chamber. […] NOVO was also prepared in HEPES buffer to yield final concentration at 5, 10, 25, 50, 100, and 200 μM. Animal intestinal segments for the permeability study were prepared in accordance with the experimental method as described previously ([Yodoya et al., 1994]; [Wallon et al., 2005]; [Duan et al., 2013]). Briefly, male SD rats, weighting 240–260 g, were fasted for 18 h before each experiment and anesthetized by injecting 10 % chloral hydrate anesthesia (i.p.). Different portions of the rat intestine were excised and flushed with HEPES buffer, including jejunum (after the first 5 cm of the top of small intestine), ileum (the distal part of small intestine) and colon (proximal to cecal-colonic junction), and incubated in the ice-cold HEPES buffer. Next, 3–4 cm of the intestine was clipped, and the serosa was removed rapidly on an ice-cold glass. The intestinal segments were fixed in the Ussing chamber. Finally, 7 mL of HEPES buffer was added to the receiving side while an equal volume of drug solution to the dosing side. All the chambers were maintained at 37°C by using a warm water-circulating pump and a mixture of 95% O2 and 5% CO2 aerated to ensure the activity of the membrane. […]

[3] = system: IEC-6/TRPV1- cells; experiment: LDH release assay (cell membrane integrity)
Description: as §4

[4] = system: IEC-6/TRPV1- cells; experiment: CAP accumulation assay; format: cell-based, rat; details: 2.5-10 μM NOVO, 10 μM RR, 0.1 μM SB-705498, Figure 3D
Description: The transfected cells were grown to 80% confluence in 12-well plates. The experiment was divided into three parts: […] SB-705498, RR or NOVO was then added to the medium for another 15, 30, and 60 min. […] After incubation, the medium was removed, and cell layers were washed three times with ice-cold PBS and then extracted with Membrane Protein Extraction Kit (Thermo Fisher Scientific Inc, Rockford, IL, United States), according to the manufacturer’s protocol. The cytosolic protein extracts were stored at -80°C until LC-MS/MS analysis. The plasma samples and protein sample with 100 μL were extracted with 400 μL of methanol involving IS (verapamil 50 ng⋅mL^-1) by vortex-mix for 1 min, ultrasonic extraction for 1 h, and then centrifugation for 30 min at 15000 g. The supernatant was transferred into a borosilicate glass and 2 μL was subjected to LC-MS/MS analysis. The LC-MS/MS system consisted of Agilent 6460 Triple Quadrupole LC/MS systems via an ESI interface. The samples were separated on an Agilent ZORBAX SB-C18 column (3.5 μm, 2.1 mm × 150 mm) and the column temperature was maintained at 30°C. The mobile phase consisted of acetonitrile and water contains 0.1% formic acid (70:30, v/v). The flow rate was 0.2 mL⋅min^-1. The ion source was an electrospray ionization interface in the positive mode. […] Other parameters were as follows: spray voltage, 4.0 kV; capillary temperature, 350°C; gas flow, 10 L⋅min^-1.

[5] = system: rat intestine (jejunum, ileum, colon); experiment: Ussing chamber intestinal permeability of CAP; format: in vitro ADME; details: CAP + 10 μM inhibitor; for fold-inhibition factor of CAP Papp: vs CAP only
Description: NOVO was also prepared in HEPES buffer to yield final concentration at 5, 10, 25, 50, 100, and 200 μM. […] Different portions of the rat intestine were excised and flushed with HEPES buffer, including jejunum (after the first 5 cm of the top of small intestine), ileum (the distal part of small intestine) and colon (proximal to cecal-colonic junction), and incubated in the ice-cold HEPES buffer. Next, 3–4 cm of the intestine was clipped, and the serosa was removed rapidly on an ice-cold glass. The intestinal segments were fixed in the Ussing chamber. Finally, 7 mL of HEPES buffer was added to the receiving side while an equal volume of drug solution to the dosing side. […] All the samples were kept at -20°C till HPLC analysis.
In brief, samples were injected into a C18 column (3.5 μm, 2.1 mm × 100 mm). An aliquot of 20 μL of sample solutions were injected.

[6] = in vivo; details: SD, rat, po, 10 mg
Description: Blood samples were collected into heparinized tubes before and at 30, 60, 120, 180, 210, 240, 270, 330, 390, and 720 min after administration. Blood samples were immediately centrifuged at 4000 g (4°C) for 10 min to obtain plasma. The plasma samples were stored at -80°C until LC-MS/MS analysis.
The plasma samples and protein sample with 100 μL were extracted with 400 μL of methanol involving IS (verapamil 50 ng⋅mL^-1) by vortex-mix for 1 min, ultrasonic extraction for 1 h, and then centrifugation for 30 min at 15000 g. The supernatant was transferred into a borosilicate glass and 2 μL was subjected to LC-MS/MS analysis.
The LC-MS/MS system consisted of Agilent 6460 Triple Quadrupole LC/MS systems via an ESI interface. The samples were separated on an Agilent ZORBAX SB-C18 column (3.5 μm, 2.1 mm × 150 mm) and the column temperature was maintained at 30°C. The mobile phase consisted of acetonitrile and water contains 0.1% formic acid (70:30, v/v). The flow rate was 0.2 mL⋅min^-1. The ion source was an electrospray ionization interface in the positive mode. […] Other parameters were as follows: spray voltage, 4.0 kV; capillary temperature, 350°C; gas flow, 10 L⋅min^-1.

[7] = system: IEC-6/TRPV1+ cells; experiment: MTT cell viability assay; details: for Cell Survival: IEC-6/TRPV1+
Description: (§1) The rat intestinal epithelial cell line IEC-6, purchased from Kunming Institute of Zoology. CAS, was cultured in Dulbecco’s Modified Eagle’s Medium (DMEM) (Gibco, Grand Island, NY, United States) supplemented with 10% fetal bovine serum (FBS; Gibco) at 37°C in a humidified atmosphere of 5% CO2.
(§2) The plasmid pENTER containing the TRPV1 coding sequence NM_080704 was used as template in a PCR with the following primers: 5′-[…]-3′ (forward) and 5′-[…] (reverse). And synthetic small interfering RNA (siRNA) specific for rat TRPV1 (TRPV1-siRNA) was purchased from Vigene Bioscience (Rockville, MD, United States) with the following sequences: 5′-[…]-3′ (forward) and 5′-[…]-3′ (reverse) for TRPV1-siRNA. The transfecting process was conducted by using the lipofectamin® 3000 transfection reagent (Invitrogen^TM, Carlsbad, CA, United States), according to the manufacturer’s protocol.
(§3) The transfected cells were plated in 96-well plates. […] Optical density at 490 nm was used to evaluate cell viability in 96-well plates.

[8] = system: IEC-6/TRPV1- cells; experiment: MTT cell viability assay
Description: as §1, §2, §3

In the case of `N.N.N.N.N.N.N.N.N.N.N.N.N.N.[Cl-].[Cl-].[Cl-].[Cl-].[Cl-].[Cl-].[O-2].[O-2].[Ru+3].[Ru+3].[Ru+4]` [RR, ruthenium red], the LDH release ([1]; 10 μM, 12 h) is reported as 0.406 ± 0.056 gprot⋅mL ^-1, the LDH release ([1]; 10 μM, 24 h) is reported as 0.301 ± 0.061 gprot⋅mL ^-1 and the “LDH release compared with the control” value [1] is reported as “not any significant difference”. The “effect on permeability of NOVO across intestinal segments” value [2] was “no change”, the LDH release ([3]; 10 μM, 12 h) was 0.552 ± 0.039 gprot⋅mL ^-1 and the LDH release ([3]; 10 μM, 24 h) was 0.501 ± 0.094 gprot⋅mL ^-1. The “accumulation of CAP, co-incubation” value [4] was “did not change”, the “Papp of CAP” value ([5]; colon) was 12.18 ± 2.90 ×10^-6, cm⋅s^-1 and the “fold-inhibition factor of CAP Papp” value ([5]; colon) was 1.64 fold. The “Papp of CAP” value ([5]; ileum) was 5.06 ± 0.57 ×10^-6, cm⋅s^-1, the “fold-inhibition factor of CAP Papp” value ([5]; ileum) was 1.46 fold and the “Papp of CAP” value ([5]; jejunum) was 2.54 ± 0.40 ×10^-6, cm⋅s^-1. For the same compound, the “fold-inhibition factor of CAP Papp” value ([5]; jejunum) was 1.23 fold.
Compound `COc1cc(CNC(=O)CCCC/C=C/C(C)C)ccc1O` [CAP, capsaicin] has an AUC(0-t) [6] of 230 ng·h/mL, a Cmax [6] of 52.2 ± 8.92 ng/mL and a Tmax ([6]; Tmax of CAP) of 3.9 h. The Tmax ([6]; peak time (Tmax) of CAP) was roughly 4 h, the LDH release ([1]; 25 μM, 12 h) was 0.380 ± 0.165 gprot⋅mL ^-1 and the LDH release ([1]; 25 μM, 24 h) was 0.311 ± 0.051 gprot⋅mL ^-1. For the same compound, the “LDH release compared with the control” value [1] was “not any significant difference”, the LDH release ([3]; 25 μM, 12 h) was 0.680 ± 0.205 gprot⋅mL ^-1 and the LDH release ([3]; 25 μM, 24 h) was 0.462 ± 0.101 gprot⋅mL ^-1. The “Cell Survival” value ([7]; 12.5 μM, incubation 12 h) was 1.029 ± 0.180, the “Cell Survival” value ([7]; 12.5 μM, incubation 24 h) was 0.916 ± 0.163 and the “Cell Survival” value ([7]; 25 μM, incubation 12 h) was 0.896 ± 0.199. For the same compound, the “Cell Survival” value ([7]; 25 μM, incubation 24 h) was 0.822 ± 0.102, the “Cell Survival” value ([7]; 50 μM, incubation 12 h) was 0.820 ± 0.201 and the “Cell Survival” value ([7]; 50 μM, incubation 24 h) was 0.739 ± 0.012. The “concentration up to which more than 80% of the cells were viable” value ([7]; both IEC-6/TRPV1+ and IEC-6/TRPV1-, incubated 24 h) was 25 µM, the “Cell Survival” value ([8]; 12.5 μM, incubation 12 h) was 0.969 ± 0.310 and the “Cell Survival” value ([8]; 12.5 μM, incubation 24 h) was 0.934 ± 0.111. For the same compound, the “Cell Survival” value ([8]; 25 μM, incubation 12 h) was 0.851 ± 0.216, the “Cell Survival” value ([8]; 25 μM, incubation 24 h) was 0.878 ± 0.096 and the “Cell Survival” value ([8]; 50 μM, incubation 12 h) was 0.792 ± 0.316. The “Cell Survival” value ([8]; 50 μM, incubation 24 h) was 0.801 ± 0.171.
